The data set in a line: Dynamic vapor sorption (moisture sorption/desorption). Conditions: for change of solid form post dynamic vapor sorption experiment: after DVS experiment up to 95% RH at 25° C.; for water absorbed (dynamic vapor sorption): up to 95% RH at 25° C. The data set is classed as physicochemical. On the procedure:
Moisture sorption/desorption data were collected on a VTI SGA-100 Vapor Sorption Analyzer. NaCl and PVP were used as calibration standards. Samples were not dried prior to analysis. Sorption and desorption data were collected over a range from 5% to 95% RH at 10% RH increments under a nitrogen purge. The equilibrium criterion used for analysis was less than 0.0100% weight change in 5 minutes with a maximum equilibration time of 3 hours. Weight percentages reported in the data section are relative to the total sample mass introduced prior to equilibration at 5% RH as measured on the instrument.

For `CCCC[C@](C)(CO)Nc1nc(N)nc2cc(F)cnc12` [Compound I Gentisic Acid, (R)-2-((2-amino-7-fluoropyrido[3,2-d]pyrimidin-4-yl)amino)-2-methylhexan-1-ol gentisic acid], the “change of solid form post dynamic vapor sorption experiment” value was “not have changed forms” and the “water absorbed (dynamic vapor sorption)” value was “about 1.1%”.
`CCCC[C@](C)(CO)Nc1nc(N)nc2cc(F)cnc12` [Compound I Hippuric Acid, (R)-2-((2-amino-7-fluoropyrido[3,2-d]pyrimidin-4-yl)amino)-2-methylhexan-1-ol hippuric acid]: the “change of solid form post dynamic vapor sorption experiment” value is “not have changed forms” and the “water absorbed (dynamic vapor sorption)” value is “about 0.68%”.
In the same order, the values of `CCCC[C@](C)(CO)Nc1nc(N)nc2cc(F)cnc12.O=C(O)CCC(=O)O` [Compound I Succinic Acid, (R)-2-((2-amino-7-fluoropyrido[3,2-d]pyrimidin-4-yl)amino)-2-methylhexan-1-ol succinic acid] are “not have changed forms” and “about 1.2%”.

These data come from patent publication US11396509B2, “Solid forms of a toll-like receptor modulator” (Gilead Sciences, Inc., priority 2019, dated 2022).
